In US12435059B2, “AMP-activated protein kinase inhibitors and methods of making and using the same” (The Regents of the University of Colorado, priority 2019, dated 2025):

What was measured:
Experiment in all cases: biochemical
Assay type in all cases: binding
468 kinases [1] = target: 468 kinases (Homo sapiens, UniProt P36888, N841I); conditions: FLT3(N841I); read-out: % Inhibition @ 100 nM
468 kinases [2] = target: 468 kinases (Homo sapiens, UniProt P51451); conditions: BLK; read-out: % Inhibition @ 100 nM
468 kinases [3] = target: 468 kinases (Homo sapiens, UniProt Q9Y2I7); conditions: PIKFYVE; read-out: % Inhibition @ 100 nM
468 kinases [4] = target: 468 kinases (Homo sapiens, UniProt O94804); conditions: LOK; read-out: % Inhibition @ 100 nM
468 kinases [5] = target: 468 kinases (Homo sapiens, UniProt O95819); conditions: MAP4K4; read-out: % Inhibition @ 100 nM
468 kinases [6] = target: 468 kinases (Homo sapiens, UniProt P54762); conditions: EPHB1; read-out: % Inhibition @ 100 nM
468 kinases [7] = target: 468 kinases (Homo sapiens, UniProt Q9P289); conditions: MST4; read-out: % Inhibition @ 100 nM
468 kinases [8] = target: 468 kinases (Homo sapiens, UniProt Q99558); conditions: NIK; read-out: % Inhibition @ 100 nM
468 kinases [9] = target: 468 kinases (Homo sapiens, UniProt O15530); conditions: PDPK1; read-out: % Inhibition @ 100 nM
468 kinases [10] = target: 468 kinases (Homo sapiens, UniProt Q9HBH9); conditions: MKNK2; read-out: % Inhibition @ 100 nM
468 kinases [11] = target: 468 kinases (Homo sapiens, UniProt P54753); conditions: EPHB3; read-out: % Inhibition @ 100 nM
468 kinases [12] = target: 468 kinases (Homo sapiens, UniProt P24723); conditions: PRKCH; read-out: % Inhibition @ 100 nM
468 kinases [13] = target: 468 kinases (Homo sapiens, UniProt P21127); conditions: CDC2L1; read-out: % Inhibition @ 100 nM
468 kinases [14] = target: 468 kinases (Homo sapiens, UniProt Q9UM73, L1196M); conditions: ALK(L1196M); read-out: % Inhibition @ 100 nM
468 kinases [15] = target: 468 kinases (Homo sapiens, UniProt P04626); conditions: ERBB2; read-out: % Inhibition @ 100 nM
468 kinases [16] = target: 468 kinases (Homo sapiens, UniProt P37023); conditions: ACVRL1; read-out: % Inhibition @ 100 nM
468 kinases [17] = target: 468 kinases (Homo sapiens, UniProt Q9NYY3); conditions: PLK2; read-out: % Inhibition @ 100 nM
468 kinases [18] = target: 468 kinases (Homo sapiens, UniProt P53355); conditions: DAPK1; read-out: % Inhibition @ 100 nM
468 kinases [19] = target: 468 kinases (Homo sapiens, UniProt Q15208); conditions: NDR1; read-out: % Inhibition @ 100 nM
468 kinases [20] = target: 468 kinases (Homo sapiens, UniProt P20794); conditions: MAK; read-out: % Inhibition @ 100 nM
468 kinases [21] = target: 468 kinases (Homo sapiens, UniProt Q96PN8); conditions: TSSK3; read-out: % Inhibition @ 100 nM
468 kinases [22] = target: 468 kinases (Homo sapiens, UniProt Q8N4C8); conditions: MINK; read-out: % Inhibition @ 100 nM
468 kinases [23] = target: 468 kinases (Homo sapiens, UniProt Q7L7X3); conditions: TAOK1; read-out: % Inhibition @ 100 nM
468 kinases [24] = target: 468 kinases (Homo sapiens, UniProt Q07002); conditions: PCTK3; read-out: % Inhibition @ 100 nM
468 kinases [25] = target: 468 kinases (Homo sapiens, UniProt P42338); conditions: PIK3CB; read-out: % Inhibition @ 100 nM
468 kinases [26] = target: 468 kinases (Homo sapiens, UniProt Q9UQ88); conditions: CDC2L2; read-out: % Inhibition @ 100 nM
468 kinases [27] = target: 468 kinases (Homo sapiens, UniProt Q00526); conditions: CDK3; read-out: % Inhibition @ 100 nM
468 kinases [28] = target: 468 kinases (Homo sapiens, UniProt Q15139); conditions: PRKD1; read-out: % Inhibition @ 100 nM
468 kinases [29] = target: 468 kinases (Homo sapiens, UniProt Q13464); conditions: ROCK1; read-out: % Inhibition @ 100 nM
468 kinases [30] = target: 468 kinases (Homo sapiens, UniProt P36888, K663Q); conditions: FLT3(K663Q); read-out: % Inhibition @ 100 nM
468 kinases [31] = target: 468 kinases (Homo sapiens, UniProt P21802); conditions: FGFR2; read-out: % Inhibition @ 100 nM
468 kinases [32] = target: 468 kinases (Homo sapiens, UniProt P53671); conditions: LIMK2; read-out: % Inhibition @ 100 nM
468 kinases [33] = target: 468 kinases (Homo sapiens, UniProt Q9UM73, C1156Y); conditions: ALK(C1156Y); read-out: % Inhibition @ 100 nM

Structure (SMILES)	inhibition at 0.1 µM (468 kinases [1])	inhibition at 0.1 µM (468 kinases [2])	inhibition at 0.1 µM (468 kinases [3])	inhibition at 0.1 µM (468 kinases [4])	inhibition at 0.1 µM (468 kinases [5])	inhibition at 0.1 µM (468 kinases [6])	inhibition at 0.1 µM (468 kinases [7])	inhibition at 0.1 µM (468 kinases [8])	inhibition at 0.1 µM (468 kinases [9])	inhibition at 0.1 µM (468 kinases [10])	inhibition at 0.1 µM (468 kinases [11])	inhibition at 0.1 µM (468 kinases [12])	inhibition at 0.1 µM (468 kinases [13])	inhibition at 0.1 µM (468 kinases [14])	inhibition at 0.1 µM (468 kinases [15])	inhibition at 0.1 µM (468 kinases [16])	inhibition at 0.1 µM (468 kinases [17])	inhibition at 0.1 µM (468 kinases [18])	inhibition at 0.1 µM (468 kinases [19])	inhibition at 0.1 µM (468 kinases [20])	further results
CCN(CC)CCNC(=O)c1c(C)[nH]c(/C=C2\C(=O)Nc3ccc(CCC(N)=O)cc32)c1C [Compound No. 16, (Z)-5-((5-(3-Amino-3-oxopropyl)-2-oxoindolin-3-ylidene)methyl)-N-(2-(diethylamino)ethyl)-2,4-dimethyl-1H-pyrrole-3-carboxamide]	85%	29%	27%	0%	46%	8%	37%	16%	3%	52%	0%	0%	7%	31%	0%	0%	19%	20%	20%	4%	inhibition at 0.1 µM (468 kinases [21]): 5%; inhibition at 0.1 µM (468 kinases [22]): 81%; inhibition at 0.1 µM (468 kinases [23]): 53%; inhibition at 0.1 µM (468 kinases [24]): 9%; inhibition at 0.1 µM (468 kinases [25]): 3%; inhibition at 0.1 µM (468 kinases [26]): 13%; inhibition at 0.1 µM (468 kinases [27]): 19%; inhibition at 0.1 µM (468 kinases [28]): 0%; inhibition at 0.1 µM (468 kinases [29]): 53%; inhibition at 0.1 µM (468 kinases [30]): 92.9%; inhibition at 0.1 µM (468 kinases [31]): 1%; inhibition at 0.1 µM (468 kinases [32]): 17%; inhibition at 0.1 µM (468 kinases [33]): 86%
CCN(CC)CCNC(=O)c1c(C)[nH]c(/C=C2\C(=O)Nc3ccc(CCO)cc32)c1C [Compound No. 10, (Z)—N-(2-(Diethylamino)ethyl)-5-((5-(2-hydroxyethyl)-2-oxoindolin-3-ylidene)methyl)-2,4-dimethyl-1H-pyrrole-3-carboxamide]	95.5%	40%	6%	3%	47%	0%	0%	17%	11%	0%	0%	1%	0%	52%	0%	0%	0%	4%	34%	0%	inhibition at 0.1 µM (468 kinases [21]): 4%; inhibition at 0.1 µM (468 kinases [22]): 91.8%; inhibition at 0.1 µM (468 kinases [23]): 22%; inhibition at 0.1 µM (468 kinases [24]): 12%; inhibition at 0.1 µM (468 kinases [25]): 0%; inhibition at 0.1 µM (468 kinases [26]): 1%; inhibition at 0.1 µM (468 kinases [27]): 0%; inhibition at 0.1 µM (468 kinases [28]): 0%; inhibition at 0.1 µM (468 kinases [29]): 4%; inhibition at 0.1 µM (468 kinases [30]): 96.4%; inhibition at 0.1 µM (468 kinases [31]): 37%; inhibition at 0.1 µM (468 kinases [32]): 0%; inhibition at 0.1 µM (468 kinases [33]): 90%
